PubChem BioAssay (NCI)
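Growth conditions: 96-well plates. Treatment: test compound, 48 hours, 5 concentrations. Analysis: linear interpolation between bracketing concentrations; unreached endpoints set to highest concentration. GI50 is the concentration that inhibits growth by half. TGI marks complete inhibition of growth.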

Assays:
Test in all cases: NCI-60 cell line screen, 48 h
CAKI-1 renal = tested on: CAKI-1 renal
EKVX NSCLC = tested on: EKVX NSCLC
HOP-62 NSCLC = tested on: HOP-62 NSCLC
MOLT-4 leukemia = tested on: MOLT-4 leukemia
OVCAR-8 ovarian = tested on: OVCAR-8 ovarian
PC-3 prostate = tested on: PC-3 prostate
SK-OV-3 ovarian = tested on: SK-OV-3 ovarian
SNB-75 CNS = tested on: SNB-75 CNS

Compound | GI50 (CAKI-1 renal) [nM] | TGI (CAKI-1 renal) [µM] | GI50 (EKVX NSCLC) [µM] | TGI (EKVX NSCLC) [µM] | GI50 (HOP-62 NSCLC) [µM] | TGI (HOP-62 NSCLC) [µM] | GI50 (MOLT-4 leukemia) [nM] | TGI (MOLT-4 leukemia) [µM] | GI50 (OVCAR-8 ovarian) [nM] | TGI (OVCAR-8 ovarian) [µM] | GI50 (PC-3 prostate) [nM] | TGI (PC-3 prostate) [µM] | GI50 (SK-OV-3 ovarian) [µM] | TGI (SK-OV-3 ovarian) [µM] | GI50 (SNB-75 CNS) [nM] | TGI (SNB-75 CNS) [µM]
COc1ccc(CCN2CCC(Nc3nc4ccccc4n3Cc3ccc(F)cc3)CC2)cc1 | 1520 | 3.24 | 1.79 | 5.35 | 1.72 | 3.15 | 1670 | 4.71 | 2020 | 4.52 | 1800 | 5.66 | 1.9 | 3.44 | 1240 | 2.54
OCC1OC2OC3C(CO)OC(OC4C(CO)OC(OC5C(CO)OC(OC6C(CO)OC(OC7C(CO)OC(OC1C(O)C2O)C(O)C7O)C(O)C6O)C(O)C5O)C(O)C4O)C(O)C3O (configuration not stated) (tested in a mixture with another compound) | – | > 100 | – | > 100 | – | > 100 | – | > 100 | – | > 100 | – | > 100 | – | > 100 | – | > 100
COC1=CC(c2ccc[nH]2)=N/C1=C\c1[nH]c(C)c(C(C)=O)c1C | 630 | > 100 | 2.25 | > 100 | 0.69 | > 42.2 | 32 | > 100 | 326 | > 100 | 302 | > 100 | > 25.9 | > 100 | – | –
COc1ccc2c(c1)/C(=C\c1c(Cl)n(C)c3ccccc13)C(=O)N2 | 1100 | 13.6 | 3.95 | 24.4 | 1.44 | 24 | 1700 | > 22 | 1890 | 11.9 | 1330 | > 36.8 | 0.86 | 14.5 | 1670 | 23.6
COc1ccc(OC)c(/C=C2\COc3ccc(O)c(O)c3C2=O)c1 | 2080 | 5.73 | 3.26 | 12.2 | 8.63 | 24.5 | 1970 | > 100 | 3050 | 27 | 1820 | 6.82 | 6.94 | 22.5 | 3720 | 18.3
O=C(O)c1c[nH]c2c(OCc3ccccc3)c3ccccc3c(O)c2c1=O | 17000 | 35 | – | – | 17.5 | 31.4 | 15600 | 36.9 | 11800 | 40.9 | 15100 | 45.9 | 23.7 | 85.6 | 19500 | 43.1
Cc1[nH]nc2ccc3nc(-c4ccc5[nH]ncc5c4)c4c(c3c12)CCCC4 | 535 | 12 | 2.95 | 25.7 | 1.41 | 15.1 | 1920 | 10.1 | 1150 | 13.2 | 2860 | 23.6 | 0.243 | 0.94 | 1520 | 7.28
H-HIIKKIRTWYRKAWHVLGKV-NH2 | 3320 | 18.3 | 2.37 | 6.73 | 4.59 | > 100 | 14200 | 57.2 | 4740 | > 100 | 2790 | 9.74 | 6.36 | 22.2 | 11900 | 30.4
Cc1ccc(-c2nc(N)c(C#N)c3c2CCOc2c-3ccc3ccccc23)cc1 | 171 | 16.9 | 3.12 | – | 0.313 | 7.93 | 420 | > 100 | 2280 | 27.8 | 186 | 7.51 | 3.42 | – | 5020 | > 100
N#Cc1c(N)nc(NCc2ccccc2)c(C#N)c1-c1ccccc1Cl | 14600 | > 100 | 24.4 | 85.3 | 4.47 | 18 | 26800 | > 100 | 11400 | > 100 | 12000 | > 100 | 62.7 | > 100 | 10300 | 48.8
Nc1ccc(-c2nc3ccccc3o2)cc1S | 20500 | 36.4 | 11.6 | 55.3 | 14.5 | 27.7 | 7770 | > 100 | 20300 | 58 | 6960 | 22.5 | 23.2 | 65.1 | – | –
O=C(Nc1ccc(OCc2nnc(-c3ccccc3)o2)c(F)c1)Nc1ccc(Cl)c(C(F)(F)F)c1 | – | – | – | – | 2.84 | 7.95 | 1610 | 7.13 | 2570 | 11.5 | 1300 | 4.85 | 3.17 | 9.46 | 1640 | 5.08
Cc1nn(-c2ccccc2)c2nc3c(nc12)C1=NCCN1C(c1ccc(Cl)cc1)N3 (configuration not stated) | 13200 | 27.3 | – | – | 3.26 | 8.31 | 2380 | 6.01 | 6290 | 21 | 4330 | 18.3 | 7.9 | 19.4 | 1620 | 6.25
COc1cccc(Cn2c(-c3nonc3NC(C)=O)nc3ccccc32)c1 | 2050 | > 100 | – | – | 8.53 | > 100 | 5630 | > 100 | 6300 | > 100 | 2830 | > 100 | 3.07 | > 100 | 144 | 3.85
CC1(C)N=C(N)N=C(N)N1c1cccc(CCCCOc2ccccc2)c1 | 2700 | > 100 | – | – | 0.663 | > 87.1 | 62.9 | 36.3 | 465 | > 100 | < 10 | 9.96 | 1.91 | > 100 | 195 | 22.9
CCOC(=O)N[C@@H]1C2CC(=O)C(O2)[C@@H]1OC (some centres not stated) | – | > 100 | – | > 100 | – | > 100 | – | > 100 | – | > 100 | – | – | – | > 100 | – | > 100
O=C(CN1C(=O)S/C(=C\C(Cl)=C\c2ccccc2)C1=O)NCCc1ccc(O)cc1 | 1780 | 3.76 | 2.04 | 4.74 | 3.34 | 15.7 | 2380 | > 100 | 2970 | > 100 | 1960 | 5.12 | 3.48 | > 100 | 1050 | 6.64
